Results on one molecule are retold here after patent US9822128B1, “Substituted spirooxindoles” (KING SAUD UNIVERSITY, priority 2017, dated 2017).

The test system of one test is HCT-116. Kind of test: Cell cycle analysis (propidium iodide flow cytometry). In kind it is cell-based, human. To be noted: HCT-116, 2 μM, 24 hours. The protocol:
The cells (HCT-116) were seeded 5*10^4 cells/mL in a 6-well plate (2 mL/well) and allowed to adhere overnight at 37° C. and 5% CO2. The cells were incubated with or without 2 μM of compound 4d for 24 hours. The cells were washed twice with ice-cold 1×PBS and collected after trypsinzation. The cell pellet was washed two times with ice-cold 1×PBS and fixed with ice-cold 70% ethanol overnight at −20° C. After that, the cells were washed once with ice-cold PBS and the second wash was done with ice-cold PBS-2% FBS. The cell pellet was re-suspended in 500 μL Propidium Iodide (PI)/RNase (BD Biosciences, BDB550825) staining solution for 15 min at room temperature. The samples were incubated for 15 min in the dark and analyzed within 1 hour by BD Accuri™ C6 Plus flow cytometer. […] The arrest of the cell cycle in subG1 indicates the induction of apoptosis.

The next test deals with Vero-B. Kind of test: MTT cytotoxicity assay, normal kidney cell line. To be noted: Chlorocebus sabaeus, Vero B; Table 1; MTT, 48 hrs incubation; read-out: VERO-B (IC50% μM). In kind it is cell-based, African green monkey. The protocol:
(§1) The cytotoxic activity of the compounds was tested against different mammalian cancer cells, prostate carcinoma cells (PC-3), hepatocellular carcinoma (HepG2) and colon cancer cells (HCT-116) and against African green monkey kidney cell line (Vero-B). The cell lines were obtained from American Type Culture Collection (ATCC). The cells were cultivated at 37° C. and 10% CO2 in DMEM (Lonza, 12-604F) medium supplemented with 10% fetal bovine serum (FBS, Lonza, Cat. No. 14-801E), 100 IU/ml penicillin and 100 μg/ml streptomycin (Lonza, 17-602E). Cisplatin (cis-diamineplatinum (II) dichloride) was used as a positive control and was obtained from Sigma then dissolved in 0.9% saline then stored as 8 mM stock solution at −20° C. The synthesized compounds were solubilized in DMSO and stored at −20° C. 0.5% crystal violet was prepared in Methanol and was used to stain the viable cells (Feoktistova, Geserick et al. 2016). Crystal violet binds to proteins and DNA in the adherent and viable cells so the stain is an indicator for the viability of the treated cells. The viability of the cells were quantified by using MTT reagent (3-(4,5-dimethylthiazol-2-yl)-2,5-diphenyl tetrazolium bromide), which measure the activity of mitochondrial dehydrogenase in the viable cells (Slater, Sawyer et al. 1963, Mosmann 1983).
(§2) Cytotoxicity was further assayed as follows. The cells were seeded in 96-well plate as 5*10^4 cells/mL (100 μL/well). A serial dilutions of tested compounds or cisplatin (100, 30, 10, 3.3, 1.1 or 0.37 μM) was added after overnight incubation of the cells at 37° C. and 5% CO2. DMSO was used as a control (0.1%). The cells were incubated for 48 hrs. After that, 15 μl of MTT (5 mg/mL PBS) was added to each well and incubated for another 4 hours. The formazan crystals were solubilized by 100 μL acidified SDS solution (10% SDS/0.01 M HCl). The absorbance was measured after 14 hours of incubation at 37° C. and 5% CO2 at 570 nm by Biotech plate reader. Each experiment was repeated three times and standard deviation was calculated (±). IC50% was calculated as the concentration that cause 50% inhibition for cell growth. The growth of the cells were monitored and the images were acquired by Gx microscopes (GXMGXD202 Inverted Microscope) (10× Eyepiece) after staining with crystal violet.

For another test, the system named is HepG2. Kind of test: MTT cytotoxicity assay, hepatocellular carcinoma cells. In kind it is cell-based, human. To be noted: for IC50: Homo sapiens, HepG2, MTT, 48 hrs incubation. The protocol:
as §1, §2

The subject of a further test is HCT-116 cells. Kind of test: Colony forming assay. In kind it is cell-based, human. Conditions: HCT-116, 2 μM (method) / 1 μM (result sentence), 10 days, vs DMSO control. The protocol:
HCT-116 cells were seeded in 35 mm cell culture dish (500 cells/ml, 2 ml/dish). After overnight incubation at 37° C. and 5% CO2, the medium was replaced with fresh medium containing either DMSO or 2 μM of 4d. The dishes were returned into the incubator and watched for the formation of single colonies. After 10 days, the experiment was stopped by washing the colonies by ice-cold 1×-PBS and fixed with ice-cold methanol. The colonies were left to air dry, then stained with 0.5% crystal violet. The excess stain was washed off by tap water. The colonies were counted by Gx microscopes (GXMGXD202 Inverted Microscope) (10× Eyepiece) and images were processed by ImageJ 1.47v. The effect of compound 4d on the colony formation of colon cancer cells was evaluated by incubating the cells with 1 μM. […] This confirms the ability of compound 4d to enhance tumor suppressor activities.

Test [1] concerns p53 in HCT-116 (wt p53) cells. Kind of test: p53 activation, p53 protein level by flow cytometry. In kind it is cell-based, human. Conditions: for shift in fluorescence (p53 antibody): 48 hours, untreated 23%. The protocol:
The determination of p53 protein level by flow cytometry was applied because it measures the level in a single cell and determines the heterogeneity of expression within a population of cells. HCT-116 (wt p53) cells were seeded at 5*10^4 cells/mL density in a 6-well plate (2 ml/well). The cells were treated with 1 or 2 μM of compound 4d for 48 hrs, and the cells were collected after trypsin enzyme treatment and washed two times with ice-cold 1×PBS. The cells were fixed with 4% paraformaldehyde for fixation and permeabilization, then washed one time with 1× ice-cold PBS and one time with PBS containing 2% FBS. Then an aliquot of the cells was incubated with an anti-p53 antibody for one hour, and then washed two times with PBS. After that, the same cells were stained with PI (propidium iodide). […] In order to confirm the effect of compound 4d on the activation of p53, we incubated the colon cancer cells with 2 μM of compound 4d, and after 24 hours, the cells were stained with the antibody against p53. […] See FIGS. 6B (1 μM treatment with compound 4d for 48 hours; 52.7% shift in fluorescence) and 6C (2 μM treatment with compound 4d for 48 hours; 60.1% shift in fluorescence) compared to FIG. 6A (untreated cancer cells; 23% shift in fluorescence).

Structures are written as SMILES. Where two headings read alike, the source gives them in different places.

For the molecule `O=C(/C=C/c1ccc(Cl)cc1Cl)[C@H]1[C@H](c2ccc(Cl)cc2Cl)[C@H]2CSCN2[C@]12C(=O)Nc1ccccc12` [Compound 4d, (3R,6′S,7′R,7a′S)-7′-(2,4-dichlorophenyl)-6′-((E)-3-(2,4-dichlorophenyl)acryloyl)-1′,6′,7′,7a′-tetrahydro-3′H-spiro[indoline-3,5′-pyrrolo[1,2-c]thiazol]-2-one], the “cells arrested in G2/M” value with HCT-116 is listed as “around 34.5%”. Moreover, in the test on HCT-116, the “cells arrested in subG1” value was about 15.5%. Besides, the results for the IC50 with Vero-B, in the test on HepG2 (read-out: HepG2 (IC50% μM)) and in the test on HepG2 (read-out: HepG2 (IC50% μg/ml)) were 5 µM, 0.85 ± 0.2 µM and 0.5 µg/mL, respectively. The molecule further registered an SI in the test on HepG2 (Selectivity Index from IC50 normal (VERO-B) and IC50 cancer (HepG2)) of 5.882. Further, the formation of colonies entry in the test with HCT-116 cells is listed as “able to inhibit the formation of colonies”. In addition, the “shift in fluorescence (p53 antibody)” value in test [1] (HCT-116, 1 μM) turned out to be 52.7%; in test [1] (HCT-116, 2 μM), 60.1%. Further, the “cell population positive for p53” value in test [1] (colon cancer cells, 2 μM, 24 hours) is reported as “significant increase”.
